According to patent US6872729B2, “Pyrimidinylbenzimidazole and triazinylbenzimidazole derivatives and agricultural/horticultural fungicides” (Kumiai Chemical Industry Co., Ltd., priority 1998, dated 2005):

Each molecule was assayed on Erysiphe graminis (assay: Test for preventive effect on wheat powdery mildew). Conditions: wheat (Norin-61-go) seedlings, 500 ppm active ingredient, preventive treatment; diseased area of first leaves 10 days after inoculation with Erysiphe graminis.
Format: in vivo
Procedure: Test for Preventive Effect on Wheat Powdery Mildew 9 Wheat seeds (variety: Norin-61-go) were sown in each 9 cm×9 cm polyvinyl chloride pot, grown in a greenhouse for 8 days, then treated with 10 ml per pot of aqueous solutions of wettable powders prepared in accordance with Formulation Example 2, at a concentration of 500 ppm in terms of the active ingredients and dried in the air. Then, the seedlings were inoculated with Erysiphe graminis spores by sprinkle over the plant and placed in a greenhouse of from 20 to 25° C. 10 days after the inoculation, the total diseases area of the first leaves in each pot was observed and evaluated on the basis of the standards shown in Table 67. [table]

SMILES | Biological effectiveness
COc1cc(OC)nc(-n2c(Cl)nc3cc(C(F)(F)F)ccc32)n1 [Compound I-259] | A (No diseased area)
CCc1cc(CC)nc(-n2cnc3ccccc32)n1 [Compound I-1093] | A (No diseased area)
CCc1nc2cc(Cl)ccc2n1-c1nc(OC)nc(OC)n1 [Compound I-346] | A (No diseased area)
COc1ccc2c(c1)nc(C)n2-c1nc(OC)nc(OC)n1 [Compound I-226] | A (No diseased area)
COc1cc(C)nc(-n2c(C)nc3cc(Cl)ccc32)n1 [Compound I-731] | B (Diseased area of less than 25%)
COc1nc(C2CC2)nc(-n2c(C(F)(F)F)nc3cc(C)ccc32)n1 [Compound I-1022] | A (No diseased area)
COc1cc(OC)nc(-n2cnc3cc(C#N)ccc32)n1 [Compound I-111] | B (Diseased area of less than 25%)
CCOc1cc(C)nc(-n2c(C)nc3ccccc32)n1 [Compound I-769] | A (No diseased area)
COc1ccnc(-n2c(C)nc3cc(C)ccc32)n1 [Compound I-672] | B (Diseased area of less than 25%)
CNc1nc2cc(Cl)ccc2n1-c1nc(OC)nc(OC)n1 [Compound I-375] | A (No diseased area)
COc1ccc2c(c1)nc(C(F)(F)F)n2-c1nc(OC)cc(OC)n1 [Compound I-300] | A (No diseased area)
CCCc1ccc2c(c1)ncn2-c1nc(OC)nc(OC)n1 [Compound I-135] | A (No diseased area)
CCCOc1nc(OCCC)nc(-n2c(C)nc3cc(Cl)ccc32)n1 [Compound I-580] | A (No diseased area)
CCCc1ccc2c(c1)nc(C(F)(F)F)n2-c1nc(OC)nc(OC)n1 [Compound I-314] | A (No diseased area)
CCCc1cc(OC)nc(-n2cnc3cc(C)ccc32)n1 [Compound I-962] | A (No diseased area)
COc1nc(OC)nc(-n2c(C)nc3cc(C#N)ccc32)n1 [Compound I-239] | A (No diseased area)
CCCc1ccc2c(c1)nc(C)n2-c1nc(OC)nc(OC)n1 [Compound I-220] | B (Diseased area of less than 25%)
COc1ccnc(-n2c(C)nc3cc(Cl)ccc32)n1 [Compound I-671] | B (Diseased area of less than 25%)
COc1nc(OC)nc(-n2c(C)nc3cc(OC(F)(F)F)ccc32)n1 [Compound I-229] | A (No diseased area)
COc1ccc2c(c1)ncn2-c1nc(OC)cc(OC)n1 [Compound I-88] | B (Diseased area of less than 25%)
COc1nc(OC)nc(-n2c(SC)nc3cc(Cl)ccc32)n1 [Compound I-394] | A (No diseased area)
C#CCOc1cc(C)nc(-n2c(C(F)(F)F)nc3cc(C)ccc32)n1 [Compound I-903] | B (Diseased area of less than 25%)
COc1cc(OC)nc(-n2c(C)nc3c(C)cccc32)n1 [Compound I-181] | B (Diseased area of less than 25%)
C=CCOc1cc(C)nc(-n2c(C)nc3ccccc32)n1 [Compound I-885] | B (Diseased area of less than 25%)

SMILES | Biological effectiveness
COc1cc(OC)nc(-n2c(N)nc3ccc(C)cc32)n1 [Compound I-366] | A (No diseased area)
CCOc1nc(OCC)nc(-n2c(Cl)nc3cc(Cl)ccc32)n1 [Compound I-534] | A (No diseased area)
COc1cc(OC)nc(-n2c(C#N)nc3cc(C)ccc32)n1 [Compound I-381] | A (No diseased area)
Cc1cc(OC(C)C)nc(-n2cnc3ccccc32)n1 [Compound I-839] | A (No diseased area)
COc1cc(OC)nc(-n2cnc3cc(C(F)(F)F)ccc32)n1 [Compound I-87] | A (No diseased area)
CCOc1cc(OCC)nc(-n2c(C)nc3ccc(OC)cc32)n1 [Compound I-511] | A (No diseased area)
CCc1cc(C)nc(-n2c(C)nc3cc(C)ccc32)n1 [Compound I-1087] | A (No diseased area)
CCCOc1cc(C)nc(-n2c(C)nc3ccccc32)n1 [Compound I-806] | B (Diseased area of less than 25%)
COc1cc(OC)nc(-n2c(C#N)nc3cc(Cl)ccc32)n1 [Compound I-380] | A (No diseased area)
COc1ccnc(-n2cnc3cc(C)ccc32)n1 [Compound I-670] | B (Diseased area of less than 25%)
CCOc1cc(OCC)nc(-n2cnc3cc(F)ccc32)n1 [Compound I-479] | A (No diseased area)
COc1cc(OC)nc(-n2c(C(F)(F)F)nc3cc(Cl)ccc32)n1 [Compound I-296] | A (No diseased area)
COc1nc(C)nc(-n2c(C)nc3cc(C)ccc32)n1 [Compound I-752] | A (No diseased area)
COc1nc(OC)nc(-n2c(C)nc3cc(C(C)=O)ccc32)n1 [Compound I-234] | A (No diseased area)
CCc1cc(CC)nc(-n2cnc3cc(C)ccc32)n1 [Compound I-1094] | A (No diseased area)
CCc1cc(CC)nc(-n2c(C)nc3ccc(Cl)cc32)n1 [Compound I-1098] | A (No diseased area)
CCCc1nc(OC)nc(-n2c(C(F)(F)F)nc3cc(C)ccc32)n1 [Compound I-1004] | A (No diseased area)
CCc1nc2cc(C)ccc2n1-c1nc(OC)cc(OC)n1 [Compound I-334] | A (No diseased area)
CCOc1ccnc(-n2cnc3ccccc32)n1 [Compound I-690] | A (No diseased area)
CCCOc1cc(C)nc(-n2cnc3cc(C)ccc32)n1 [Compound I-809] | B (Diseased area of less than 25%)
Cc1nc2cc(Cl)ccc2n1-c1nc(N(C)C)nc(N(C)C)n1 [Compound I-1071] | A (No diseased area)
C#CCOc1cc(C)nc(-n2cnc3cc(C)ccc32)n1 [Compound I-895] | B (Diseased area of less than 25%)
CNc1nc2ccccc2n1-c1nc(OC)cc(OC)n1 [Compound I-29] | B (Diseased area of less than 25%)
COc1ccnc(-n2c(C(F)(F)F)nc3cc(Cl)ccc32)n1 [Compound I-682] | A (No diseased area)

SMILES | Biological effectiveness
COc1cc(OC)nc(-n2c(C(Cl)(Cl)Cl)nc3ccccc32)n1 [Compound I-25] | A (No diseased area)
COc1nc(OC)nc(-n2cnc3cc(I)ccc32)n1 [Compound I-132] | A (No diseased area)
CCOc1cc(OCC)nc(-n2c(C)nc3ccc(Cl)cc32)n1 [Compound I-508] | B (Diseased area of less than 25%)
COc1cc(OC)nc(-n2c(C)nc3ccccc32)n1 [Compound I-6] | B (Diseased area of less than 25%)
COc1cc(OC)nc(-n2c(C)nc3cc(C(F)(F)F)ccc32)n1 [Compound I-188] | A (No diseased area)
CCCc1cc(OC)nc(-n2cnc3ccccc32)n1 [Compound I-958] | B (Diseased area of less than 25%)
COc1cc(OC)nc(-n2c(Cl)nc3cc(OC(F)(F)F)ccc32)n1 [Compound I-263] | A (No diseased area)
CCOc1ccnc(-n2c(C)nc3cc(C)ccc32)n1 [Compound I-695] | A (No diseased area)
CCOc1cc(C)nc(-n2cnc3ccccc32)n1 [Compound I-768] | A (No diseased area)
COc1nc(OC)nc(-n2c(N)nc3cc(C)ccc32)n1 [Compound I-369] | B (Diseased area of less than 25%)
Cc1cc(C(F)(F)F)nc(-n2cnc3ccccc32)n1 [Compound I-1082] | B (Diseased area of less than 25%)
COc1nc(OC)nc(-n2cnc3cc(C(C)C)ccc32)n1 [Compound I-136] | B (Diseased area of less than 25%)
COc1cc(OC)nc(-n2c(Cl)nc3cc(Cl)ccc32)n1 [Compound I-256] | A (No diseased area)
COc1cc(OC)nc(-n2cnc3cc(C)ccc32)n1 [Compound I-85] | A (No diseased area)
COc1cc(OC)nc(-n2c(C)nc3cc(C(=O)c4ccccc4)ccc32)n1 [Compound I-195] | B (Diseased area of less than 25%)
COc1cc(OC)nc(-n2c(C)nc3cc(Cl)c(Cl)cc32)n1 [Compound I-209] | B (Diseased area of less than 25%)
COc1ccc2c(c1)nc(N)n2-c1nc(OC)cc(OC)n1 [Compound I-364] | A (No diseased area)
COc1cc(OC)nc(-n2c(C)nc3ccc(C(=O)c4ccccc4)cc32)n1 [Compound I-208] | B (Diseased area of less than 25%)
CCOc1cc(OCC)nc(-n2c(C)nc3ccccc32)n1 [Compound I-461] | A (No diseased area)
CCOc1cc(OCC)nc(-n2c(C)nc3ccc(C(F)(F)F)cc32)n1 [Compound I-510] | A (No diseased area)
COc1cc(OC)nc(-n2c(S(C)(=O)=O)nc3cc(C)ccc32)n1 [Compound I-424] | A (No diseased area)
CCc1cc(CC)nc(-n2c(C)nc3cc(Cl)ccc32)n1 [Compound I-1096] | A (No diseased area)
CCOc1cc(OCC)nc(-n2c(C)nc3cc(OC)ccc32)n1 [Compound I-503] | A (No diseased area)
COc1ccnc(-n2cnc3cc(Cl)ccc32)n1 [Compound I-669] | B (Diseased area of less than 25%)
